Source: PubChem BioAssay AID248 (DTP/NCI, 2004)
Toxic doses and inconclusive results are not listed. Rule as the data show it: active = T/C of 150% or more; inactive = T/C below 125%.

Test system: L1210 leukemia ip in BDF1 mice, survival T/C
Experiment: NCI In Vivo Anticancer Drug Screen. Data for tumor model L1210 Leukemia (intraperitoneal) in B6D2F1 (BDF1) mice
Details: endpoint: mean survival time, higher = longer survival
Outline: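 Transplanted-tumor mice were given test agent; controls received vehicle only. Survival readings from the two groups were divided (treated over control).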

[1] = dose: 100.0 mg/kg/injection, schedule: Q01DX009 (ip), vehicle: saline with Tween-80
[2] = dose: 200.0 mg/kg/injection, schedule: Q01DX009 (ip), vehicle: saline with Tween-80
[3] = dose: 100.0 mg/kg/injection, schedule: Q01DX009 (ip), vehicle: Klucel (hydroxypropylcellulose) (HPC)
[4] = dose: 100.0 mg/kg/injection, schedule: Q01DX001 (ip), vehicle: saline
[5] = dose: 200.0 mg/kg/injection, schedule: Q01DX001 (ip), vehicle: saline
[6] = dose: 400.0 mg/kg/injection, schedule: Q01DX001 (ip), vehicle: saline
[7] = dose: 100.0 mg/kg/injection, schedule: Q04DX002 (ip), vehicle: saline
[8] = dose: 100.0 mg/kg/injection, schedule: Q04DX003 (ip), vehicle: saline with Tween-80
[9] = dose: 200.0 mg/kg/injection, schedule: Q04DX002 (ip), vehicle: saline
[10] = dose: 400.0 mg/kg/injection, schedule: Q04DX003 (ip), vehicle: saline with Tween-80
[11] = dose: 100.0 mg/kg/injection, schedule: Q01DX009 (ip), vehicle: saline
[12] = dose: 100.0 mg/kg/injection, schedule: Q01DX001 (ip), vehicle: Klucel (hydroxypropylcellulose) (HPC)
[13] = dose: 100.0 mg/kg/injection, schedule: Q04DX003 (ip), vehicle: Klucel (hydroxypropylcellulose) (HPC)
[14] = dose: 200.0 mg/kg/injection, schedule: Q04DX003 (ip), vehicle: Klucel (hydroxypropylcellulose) (HPC)
[15] = dose: 100.0 mg/kg/injection, schedule: Q04DX003 (ip), vehicle: saline
[16] = dose: 200.0 mg/kg/injection, schedule: Q04DX003 (ip), vehicle: saline

Measured: T/C

CC(c1ccc2ccccc2c1)c1ccccc1C(=O)O (centres undefined)
inactive: dose: 100.0 mg/kg/injection, schedule: Q01DX001 (ip), vehicle: gum acacia 94 % of control | dose: 200.0 mg/kg/injection, schedule: Q01DX001 (ip), vehicle: gum acacia 102 % of control | dose: 400.0 mg/kg/injection, schedule: Q01DX001 (ip), vehicle: gum acacia 89 % of control

C/C(=N/NC(=O)CNC(=O)c1ccccc1)c1ccc2ccccc2c1
inactive: [1] 87 % of control | [2] 100 % of control

N#CS/C=C/C(N)=O
inactive: dose: 1.0 mg/kg/injection, schedule: Q01DX001 (ip), vehicle: saline 101 % of control | dose: 2.0 mg/kg/injection, schedule: Q01DX001 (ip), vehicle: saline 99 % of control | dose: 2.0 mg/kg/injection, schedule: Q01DX009 (ip), vehicle: saline 103 % of control | dose: 4.0 mg/kg/injection, schedule: Q01DX001 (ip), vehicle: saline 95 % of control | dose: 4.0 mg/kg/injection, schedule: Q01DX009 (ip), vehicle: saline 103 % of control | dose: 8.0 mg/kg/injection, schedule: Q01DX001 (ip), vehicle: saline 94 % of control | dose: 8.0 mg/kg/injection, schedule: Q01DX009 (ip), vehicle: saline 105 % of control

Nc1ccc(Nc2ccccc2)cc1
inactive: dose: 100.0 mg/kg/injection, schedule: Q04DX002 (ip), vehicle: Klucel (hydroxypropylcellulose) (HPC) 100 % of control | dose: 200.0 mg/kg/injection, schedule: Q04DX002 (ip), vehicle: Klucel (hydroxypropylcellulose) (HPC) 104 % of control

CSc1ccc(OC(=O)Nc2ccccc2[N+](=O)[O-])cc1C
inactive: [3] 109 % of control | dose: 200.0 mg/kg/injection, schedule: Q01DX009 (ip), vehicle: Klucel (hydroxypropylcellulose) (HPC) 94 % of control | dose: 400.0 mg/kg/injection, schedule: Q01DX009 (ip), vehicle: Klucel (hydroxypropylcellulose) (HPC) 92 % of control

O=C1NC(=O)C(c2ccsc2)(c2cccs2)N1 (centres undefined)
inactive: dose: 100.0 mg/kg/injection, schedule: Q01DX001 (ip), vehicle: carboxymethylcellulose (CMC) 97 % of control | dose: 200.0 mg/kg/injection, schedule: Q01DX001 (ip), vehicle: carboxymethylcellulose (CMC) 89 % of control | dose: 400.0 mg/kg/injection, schedule: Q01DX001 (ip), vehicle: carboxymethylcellulose (CMC) 100 % of control

CCC(C)c1cc(CN(C)C)cc(C(C)CC)c1O (centres undefined)
inactive: dose: 12.5 mg/kg/injection, schedule: Q01DX009 (ip), vehicle: Klucel (hydroxypropylcellulose) (HPC) 105 % of control | dose: 25.0 mg/kg/injection, schedule: Q01DX009 (ip), vehicle: Klucel (hydroxypropylcellulose) (HPC) 105 % of control | dose: 50.0 mg/kg/injection, schedule: Q01DX009 (ip), vehicle: Klucel (hydroxypropylcellulose) (HPC) 96 % of control | [3] 102 % of control

CC(=O)OC/C=C(\C)CCC1OC1(C)C (centres undefined)
inactive: [4] 120 % of control | dose: 100.0 mg/kg/injection, schedule: Q04DX003 (ip), vehicle: water 102 % of control | [5] 108 % of control | dose: 200.0 mg/kg/injection, schedule: Q04DX003 (ip), vehicle: water 112 % of control | [6] 114 % of control | dose: 400.0 mg/kg/injection, schedule: Q04DX003 (ip), vehicle: water 101 % of control

C(=C\c1ccccc1)/CN1CCOCC1
inactive: dose: 25.0 mg/kg/injection, schedule: Q04DX002 (ip), vehicle: saline 94 % of control | dose: 50.0 mg/kg/injection, schedule: Q04DX002 (ip), vehicle: saline 94 % of control | [7] 105 % of control

CCOC(=O)NC1CCc2ccccc21 (centres undefined)
inactive: [4] 98 % of control | [5] 104 % of control | [6] 93 % of control

CNCCCN1c2ccccc2C(C)(C)c2ccccc21
inactive: [4] 97 % of control

COC1OC(CCl)C(O)C(O)C1O (centres undefined)
inactive: [7] 98 % of control | [8] 93 % of control | [9] 103 % of control | dose: 200.0 mg/kg/injection, schedule: Q04DX003 (ip), vehicle: saline with Tween-80 100 % of control | dose: 400.0 mg/kg/injection, schedule: Q04DX002 (ip), vehicle: saline 106 % of control | [10] 89 % of control

CC(C)CC(B1OCCO1)(C1CCCCC1)C1CCCCC1
inactive: [1] 107 % of control | dose: 100.0 mg/kg/injection, schedule: Q04DX003 (ip), vehicle: other 105 % of control | [2] 93 % of control | dose: 200.0 mg/kg/injection, schedule: Q04DX003 (ip), vehicle: other 104 % of control | dose: 400.0 mg/kg/injection, schedule: Q04DX003 (ip), vehicle: other 110 % of control

CC1CCN(C(=O)CC#N)CC1
inactive: dose: 50.0 mg/kg/injection, schedule: Q01DX009 (ip), vehicle: saline 108 % of control | [11] 112 % of control | [7] 102 % of control | [9] 102 % of control

CC(C)(C)C(=O)C1C(=O)c2ccccc2C1=O
inactive: dose: 0.25 mg/kg/injection, schedule: Q01DX009 (ip), vehicle: Klucel (hydroxypropylcellulose) (HPC) 101 % of control | dose: 0.25 mg/kg/injection, schedule: Q04DX003 (ip), vehicle: Klucel (hydroxypropylcellulose) (HPC) 95 % of control | dose: 0.5 mg/kg/injection, schedule: Q01DX009 (ip), vehicle: Klucel (hydroxypropylcellulose) (HPC) 95 % of control | dose: 0.5 mg/kg/injection, schedule: Q04DX003 (ip), vehicle: Klucel (hydroxypropylcellulose) (HPC) 101 % of control | dose: 1.0 mg/kg/injection, schedule: Q01DX009 (ip), vehicle: Klucel (hydroxypropylcellulose) (HPC) 104 % of control | dose: 1.0 mg/kg/injection, schedule: Q04DX003 (ip), vehicle: Klucel (hydroxypropylcellulose) (HPC) 100 % of control

O=C1c2ccccc2-c2c3c(cc4ccnc1c24)OCO3
inactive: [12] 93 % of control | dose: 200.0 mg/kg/injection, schedule: Q01DX001 (ip), vehicle: Klucel (hydroxypropylcellulose) (HPC) 96 % of control | dose: 400.0 mg/kg/injection, schedule: Q01DX001 (ip), vehicle: Klucel (hydroxypropylcellulose) (HPC) 100 % of control

Cc1cc(Cc2cccc[n+]2[O-])c2ccccc2n1
inactive: [13] 102 % of control | [14] 96 % of control

CC(C)N1CCOC1c1ccccc1 (centres undefined)
inactive: dose: 50.0 mg/kg/injection, schedule: Q01DX009 (ip), vehicle: saline sonified 105 % of control | dose: 100.0 mg/kg/injection, schedule: Q01DX009 (ip), vehicle: saline sonified 105 % of control | [15] 100 % of control | dose: 200.0 mg/kg/injection, schedule: Q01DX009 (ip), vehicle: saline sonified 100 % of control | [16] 96 % of control

O=C(CCCC(=O)N/N=C/c1cccc2ccccc12)N/N=C/c1cccc2ccccc12
inactive: dose: 50.0 mg/kg/injection, schedule: Q01DX001 (ip), vehicle: other 93 % of control | dose: 100.0 mg/kg/injection, schedule: Q01DX001 (ip), vehicle: other 91 % of control | dose: 200.0 mg/kg/injection, schedule: Q01DX001 (ip), vehicle: other 91 % of control | dose: 400.0 mg/kg/injection, schedule: Q01DX001 (ip), vehicle: other 87 % of control

COc1cc(OC)c2c(=O)c3ccccc3[nH]c2c1
inactive: [8] 87 % of control | [10] 88 % of control

CC12CCCC([N+](=O)[O-])(C1)NC(=O)C2C#N (centres undefined)
inactive: [4] 105 % of control | [5] 106 % of control | [6] 101 % of control

Nc1nc(N)c(-c2ccc(Cl)c(Cl)c2)c(COc2ccc(CNS(=O)(=O)c3ccc(S(=O)(=O)F)cc3)cc2Cl)n1
inactive: dose: 25.0 mg/kg/injection, schedule: Q01DX001 (ip), vehicle: Klucel (hydroxypropylcellulose) (HPC) 94 % of control | dose: 50.0 mg/kg/injection, schedule: Q01DX001 (ip), vehicle: Klucel (hydroxypropylcellulose) (HPC) 94 % of control | [12] 96 % of control

COC(=O)C(C)NCc1ccccc1 (centres undefined)
inactive: [11] 95 % of control | [15] 107 % of control | dose: 200.0 mg/kg/injection, schedule: Q01DX009 (ip), vehicle: saline 100 % of control | [16] 107 % of control | dose: 400.0 mg/kg/injection, schedule: Q01DX009 (ip), vehicle: saline 100 % of control | dose: 400.0 mg/kg/injection, schedule: Q04DX003 (ip), vehicle: saline 102 % of control

O=[N+]([O-])c1cc(Br)cc2c1nc(NCCCO)c1ccccc12
inactive: [13] 103 % of control | [14] 109 % of control | dose: 400.0 mg/kg/injection, schedule: Q04DX003 (ip), vehicle: Klucel (hydroxypropylcellulose) (HPC) 109 % of control
